These results are taken from patent US9663496B2, “AMPK-activating heterocyclic compounds and methods for using the same” (Rigel Pharmaceuticals, Inc., priority 2010, dated 2017).

Structures are written as SMILES.

The test deals with AMPK. Kind of test: AMPK activation, enzyme-linked immunosorbent assay. The test is classed as biochemical. The following applies: EC50 for AMPK activation, ELISA. The method in brief:
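Compounds were tested for their capacity to activate the kinase using standard, commercially available kit reagents and procedures.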
Broadly, the EC50 is the concentration at which the effect is half-maximal. Low readings indicate an effect from little substance, high ones a need for much substance. In the case of `O=C(NC1CCN(Cc2ccc(OC(F)(F)F)cc2)CC1)c1ccc(C(=O)N2CCC(C(=O)c3ccc(N4CCCC4)cc3)CC2)nc1` [Compound 440, 6-(4-(4-(pyrrolidin-1-yl)benzoyl)piperidine-1-carbonyl)-N-(1-(4-(trifluoromethoxy)benzyl)piperidin-4-yl)nicotinamide], the concentration giving a half-maximal response (EC50) was under 500 nM. `O=C(NC1CCN(Cc2cccc(OC(F)(F)F)c2)CC1)c1ccc(C(=O)N2CCC(C(=O)c3ccc(N4CCCC4)cc3)CC2)nc1` [Compound 441, 6-(4-(4-(pyrrolidin-1-yl)benzoyl)piperidine-1-carbonyl)-N-(1-(3-(trifluoromethoxy)benzyl)piperidin-4-yl)nicotinamide] gave a half-maximal effective concentration (EC50) of under 500 nM. Molecule `N#Cc1ccc(O[C@H]2CC[C@@H](NC(=O)c3ccc(C(=O)N4CCC(C(=O)c5ccc(N6CCCC6)cc5)CC4)nc3)CC2)cc1` [Compound 442, N-((cis)-4-(4-cyanophenoxy)cyclohexyl)-6-(4-(4-(pyrrolidin-1-yl)benzoyl)piperidine-1-carbonyl)nicotinamide] displayed an EC50 of under 500 nM.

In turn, `COc1ccc(CN2CCC(NC(=O)c3ccc(C(=O)N4CCC(C(=O)c5ccc(N6CCCC6)cc5)CC4)nc3)CC2)cc1F` [Compound 443, N-(1-(3-fluoro-4-methoxybenzyl)piperidin-4-yl)-6-(4-(4-(pyrrolidin-1-yl)benzoyl)piperidine-1-carbonyl)nicotinamide] returned an EC50 of under 500 nM. Consider `O=C(NC1CCN(Cc2ccc(N3CCCC3)cc2)CC1)c1ccc(C(=O)N2CCC(C(=O)c3ccc(N4CCCC4)cc3)CC2)nc1` [Compound 444, 6-(4-(4-(pyrrolidin-1-yl)benzoyl)piperidine-1-carbonyl)-N-(1-(4-(pyrrolidin-1-yl)benzyl)piperidin-4-yl)nicotinamide], for which the 50% effective concentration (EC50) was under 500 nM.

For the molecule `CC(C)Oc1ccc(CN2CCC(NC(=O)c3ccc(C(=O)N4CCC(C(=O)c5ccc(N6CCCC6)cc5)CC4)nc3)CC2)cc1` [Compound 446, N-(1-(4-isopropoxybenzyl)piperidin-4-yl)-6-(4-(4-(pyrrolidin-1-yl)benzoyl)piperidine-1-carbonyl)nicotinamide], the concentration for a half-maximal effect (EC50) is under 500 nM. For the molecule `N#Cc1ccc(CN2CCC(NC(=O)c3ccc(C(=O)N4CCC(C(=O)c5ccc(N6CCCC6)cc5)CC4)nc3)CC2)cc1F` [Compound 447, N-(1-(4-cyano-3-fluorobenzyl)piperidin-4-yl)-6-(4-(4-(pyrrolidin-1-yl)benzoyl)piperidine-1-carbonyl)nicotinamide], the EC50 was under 500 nM.

`N#Cc1ccc(CN2CCC(NC(=O)c3ccc(C(=O)N4CCC(Oc5ccc(NS(=O)(=O)C6CC6)cc5)CC4)nc3)CC2)cc1` [Compound 448, N-(1-(4-cyanobenzyl)piperidin-4-yl)-6-(4-(4-(cyclopropanesulfonamido)phenoxy)piperidine-1-carbonyl)nicotinamide] gave an EC50 of 1000 to 5000 nM. Turning to `O=C(Nc1ccc(Oc2ccc(F)cc2)nc1)c1ccc(C(=O)N2CCC(Oc3ccc(NS(=O)(=O)C4CC4)cc3)CC2)nc1` [Compound 449, 6-(4-(4-(cyclopropanesulfonamido)phenoxy)piperidine-1-carbonyl)-N-(6-(4-fluorophenoxy)pyridin-3-yl)nicotinamide], the EC50 fell in the range of 1000 to 5000 nM. In the case of `N#Cc1ccc(CN2CCC(NC(=O)c3ccc(C(=O)N4CCC(Oc5ccc(S(=O)(=O)C(F)(F)F)cc5)CC4)nc3)CC2)cc1` [Compound 450, N-(1-(4-cyanobenzyl)piperidin-4-yl)-6-(4-(4-(trifluoromethylsulfonyl)phenoxy)piperidine-1-carbonyl)nicotinamide], the EC50 was under 500 nM. The result for `COc1ccc(C(=O)C2CCN(C(=O)c3ccc(C(=O)N[C@@H]4CCN(Cc5ccc(C#N)cc5)C[C@H]4F)cn3)CC2)cc1` [Compound 452, N-((3R,4R)-1-(4-cyanobenzyl)-3-fluoropiperidin-4-yl)-6-(4-(4-methoxybenzoyl)piperidine-1-carbonyl)nicotinamide] reads under 500 nM; that for `COc1ccc(C(=O)C2CCN(C(=O)c3ccc(C(=O)N[C@H]4CCN(Cc5ccc(C#N)cc5)C[C@@H]4F)cn3)CC2)cc1` [Compound 453, N-((3S,4S)-1-(4-cyanobenzyl)-3-fluoropiperidin-4-yl)-6-(4-(4-methoxybenzoyl)piperidine-1-carbonyl)nicotinamide], under 500 nM; that for `O=C(NC1CCN(Cc2ccc(OC(F)(F)F)cc2)CC1)c1ccc(C(=O)N2CCC(Oc3ccc(C(=O)C4CC4)cc3)CC2)nc1` [Compound 455, 6-(4-(4-(cyclopropanecarbonyl)phenoxy)piperidine-1-carbonyl)-N-(1-(4-(trifluoromethoxy)benzyl)piperidin-4-yl)nicotinamide], under 500 nM. Molecule `N#Cc1ccc(CN2CCC(NC(=O)c3ccc(C(=O)N4CCC(Oc5ccc(C(=O)C6CC6)cc5)CC4)nc3)CC2)cc1` [Compound 456, N-(1-(4-cyanobenzyl)piperidin-4-yl)-6-(4-(4-(cyclopropanecarbonyl)phenoxy)piperidine-1-carbonyl)nicotinamide] showed an EC50 of under 500 nM. On to `O=C(Nc1ccc(Oc2ccc(F)cc2)nc1)c1ccc(C(=O)N2CCC(Oc3ccc(C(=O)C4CC4)cc3)CC2)nc1` [Compound 457, 6-(4-(4-(cyclopropanecarbonyl)phenoxy)piperidine-1-carbonyl)-N-(6-(4-fluorophenoxy)pyridin-3-yl)nicotinamide], for which the 50% effective concentration (EC50) was under 500 nM. On to `COc1ccc(CN2CCC(NC(=O)c3ccc(C(=O)N4CCC(Oc5ccc(C(=O)C6CC6)cc5)CC4)nc3)CC2)cc1` [Compound 458, 6-(4-(4-(cyclopropanecarbonyl)phenoxy)piperidine-1-carbonyl)-N-(1-(4-methoxybenzyl)piperidin-4-yl)nicotinamide], for which the EC50 was under 500 nM. Take `CS(=O)(=O)c1ccc(OC2CCN(C(=O)c3ccc(C(=O)Nc4ccc(Oc5ccc(C#N)cc5)nc4)cn3)CC2)cc1` [Compound 459, N-(6-(4-cyanophenoxy)pyridin-3-yl)-6-(4-(4-(methylsulfonyl)phenoxy)piperidine-1-carbonyl)nicotinamide]: the EC50 was under 500 nM. With `COc1ccc(C(=O)C2CCN(C(=O)c3ccc(C(=O)Nc4ccc(Oc5ccc(C#N)cc5)nc4)cn3)CC2)cc1` [Compound 460, N-(6-(4-cyanophenoxy)pyridin-3-yl)-6-(4-(4-methoxybenzoyl)piperidine-1-carbonyl)nicotinamide], the concentration for a half-maximal effect (EC50) was under 500 nM. The result for `COc1ccc(C(=O)C2CCN(C(=O)c3ccc(C(=O)Nc4ccc(Oc5ccc(C(C)=O)cc5)nc4)cn3)CC2)cc1` [Compound 462, N-(6-(4-acetylphenoxy)pyridin-3-yl)-6-(4-(4-methoxybenzoyl)piperidine-1-carbonyl)nicotinamide] reads under 500 nM; that for `N#Cc1ccc(Oc2ccc(NC(=O)c3ccc(C(=O)N4CCC(C(=O)c5ccc(F)cc5F)CC4)nc3)cn2)cc1` [Compound 463, N-(6-(4-cyanophenoxy)pyridin-3-yl)-6-(4-(2,4-difluorobenzoyl)piperidine-1-carbonyl)nicotinamide], under 500 nM. For `CC(=O)c1ccc(Oc2ccc(NC(=O)c3ccc(C(=O)N4CCC(C(=O)c5ccc(F)cc5F)CC4)nc3)cn2)cc1` [Compound 464, N-(6-(4-acetylphenoxy)pyridin-3-yl)-6-(4-(2,4-difluorobenzoyl)piperidine-1-carbonyl)nicotinamide], the half-maximal effective concentration (EC50) was under 500 nM.
